Test system: BHK-21 cells
Test: In vitro potency: transfection of BHK-21 cells, 96-well imaging (Cytation 5)
Type: cell-based
Settings: LNPs encapsulating saRNA expressing H5 and N1, FIG. 3
Method: For LNPs prepared with SL16, SL17, SL18, and SL21, a similar assay was performed in a 96-well plate using BHK-21 cells and analysed using a Cytation 5 Cell Imaging Multimode Reader (Agilent). The results of this assay were analysed in the same way as described for the flow cytometry assay, except only an H5-antibody was used for detection. In vitro transfection potency was determined for LNPs containing lipids SL16, SL17, SL18, and SL21. […] SL16 LNP, SL17 LNP, and SL18 LNP were formulated using a flow-rate ratio of 2:1. SL17 LNP2, SL18 LNP2, and SL21 were formulated using a flow-rate ratio of 3:1 (FIG. 3).

For `CCCCCCCCCC(CCCCCCCCC(=O)OCC(CCCC)CCCCCC)OC(=O)C1CCN(CCCO)CC1` (stereo not drawn) [SL16], which “Ability to transfect cells (H5-antibody detection)” value (shortened to “Ability to transfect cells”) is on record?
Its value is “able to transfect BHK-21 cells in vitro”.

For `CCCCCCCCCC(CCCCCCCCOC(=O)CC(CCCC)CCCCCC)OC(=O)CC1CCN(CCCO)CC1` (stereo not drawn) [SL21], which “Ability to transfect cells” value is on record?
The value was “able to transfect BHK-21 cells in vitro”.

Which “Ability to transfect cells” value does the source give for `CCCCCCCCCC(CCCCCCCCC(=O)OCC(CCCC)CCCCCC)OC(=O)CC1CCN(CCCO)CC1` (stereo not drawn) [SL17] here?
Its value is “able to transfect BHK-21 cells in vitro”.

For `CCCCCCCCCC(CCCCCCCCC(=O)OCC(CCCC)CCCCCC)OC(=O)CCC1CCN(CCCO)CC1` (stereo not drawn) [SL18], which “Ability to transfect cells” value is on record?
Its value is “able to transfect BHK-21 cells in vitro”.

Test system: not listed separately
Test: physchem
Type: physicochemical
Settings: saRNA-LNP with the lipid; TNS, pH 4 to 9.5, 25° C.; read-out: Apparent pKa
Method: In a black 96-well plate, solutions of saRNA-LNP (final assay concentration 2 μg/mL total RNA) in a series of buffers ranging from pH 4 to 9.5 were prepared. Buffers between pH 4 to 7.6 were prepared from disodium phosphate and citric acid. Buffers from 7.8 to 9.5 were prepared by titrating tris buffer with 10 N sodium hydroxide. To each well was added 6-(p-Toluidino)-2-naphthalenesulfonic acid sodium salt (TNS) in water to a final assay concentration of 6 μM. The fluorescence was read on a plate reader at 25° C. with an excitation setting of 321 nm and an emission setting of 445 nm. The intensity values were plotted as a function of pH using GraphPad Prism and were fit with a sigmoidal dose response curve. The apparent pKa was determined as the EC50 of this curve where half of the ionizable amines are expected to be protonated (see FIG. 1).

With `CCCCCCCCCC(CCCCCCCCC(=O)OCC(CCCC)CCCCCC)OC(=O)CC1CCN(C)CC1` (stereo not drawn) [SL14] as the compound, how does the pKa read?
Its pKa is 6.63.

For `CCCCCCCCCC(CCCCCCCCC(=O)OCC(CCCC)CCCCCC)OC(=O)CCC1CCN(C)CC1` (stereo not drawn) [SL15], which pKa is on record?
The pKa was 7.13.

— patent US20250281596A1, “IONIZABLE CATIONIC COMPOUND” (priority 2021, published 2025)
